Data as given in PMC9503767, “Site-Differentiated Iron–Sulfur Cluster Ligation Affects Flavin-Based Electron Bifurcation Activity” (Metabolites, 2022).

Biological target: T1, NfnL (large subunit of NADH-dependent reduced-ferredoxin: NADP+ oxidoreductase NfnSL) (Pyrococcus furiosus, UniProt Q8U195, E126C)
T1 construct: gene sudA; isolated NfnL subunit
Assay: intrinsic protein fluorescence quenching titration (ex […] nm, em […] nm), quadratic tight-binding fit

T1 sequence (Q8U195 whole entry E126C): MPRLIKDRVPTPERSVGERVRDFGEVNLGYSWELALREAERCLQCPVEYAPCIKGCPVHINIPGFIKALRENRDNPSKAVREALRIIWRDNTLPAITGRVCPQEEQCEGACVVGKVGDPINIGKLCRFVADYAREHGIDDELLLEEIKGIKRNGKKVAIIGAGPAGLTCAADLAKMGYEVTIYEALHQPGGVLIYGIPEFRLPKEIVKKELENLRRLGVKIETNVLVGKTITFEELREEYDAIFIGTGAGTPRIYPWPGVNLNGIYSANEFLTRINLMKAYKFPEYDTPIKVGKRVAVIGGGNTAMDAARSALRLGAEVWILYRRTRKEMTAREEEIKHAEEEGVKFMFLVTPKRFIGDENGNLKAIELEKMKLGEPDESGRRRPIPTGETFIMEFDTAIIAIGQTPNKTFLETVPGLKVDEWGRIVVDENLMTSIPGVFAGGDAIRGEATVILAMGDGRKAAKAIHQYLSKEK

Compound | Kd
NC(=O)c1ccc[n+]([C@@H]2O[C@H](COP(=O)([O-])OP(=O)(O)OC[C@H]3O[C@@H](n4cnc5c(N)ncnc54)[C@H](OP(=O)(O)O)[C@@H]3O)[C@@H](O)[C@H]2O)c1 [NADP+] | 2.6 ± 0.6 µM
NC(=O)C1=CN([C@@H]2O[C@H](COP(=O)(O)OP(=O)(O)OC[C@H]3O[C@@H](n4cnc5c(N)ncnc54)[C@H](OP(=O)(O)O)[C@@H]3O)[C@@H](O)[C@H]2O)C=CC1 [NADPH] | 2.6 ± 0.6 µM
